{
  "source": "patent US20220331322A1",
  "about": "“COMPOUND FOR INHIBITING CELL DEATH” (Christian-Albrechts-Universität zu Kiel, priority 2019, published 2022)",
  "key": {"L929 cells [1]": {"test_system": "L929 cells", "test": "TZ-induced RIPK1-dependent necroptosis, metabolites", "format": "cell-based, murine", "details": "L929, 10 ng/ml TNF-α + 25 μM zVAD, 24 h; 1 mM PEMA or PB", "description": "Murine fibroblasts (L929 cells) were incubated for 24 h at 37° C. in the presence of (a) vehicle, (b) 1 mM PEMA or PB, respectively, (c) a combination of 10 ng/ml TNF-α+25 μM zVAD (TZ), and (d) a combination of TZ+PEMA or TZ+PB, respectively."}, "L929 cells [2]": {"test_system": "L929 cells", "test": "Stimulation assay: TNF-α + 5Z-7 (± zVAD) induced RIPK1-dependent apoptosis/necroptosis", "format": "cell-based, murine", "details": "primidone 1 mM, Nec-1s 20 μM; for Block of RIPK1-dependent apoptosis (RDA): L929, 10 ng/ml TNF-α + 1 μM 5Z-7, 24 h, zVAD 25 μM", "description": "Murine fibroblasts (L929 cells) were stimulated for 24 h at 37° C. in the presence of (a) vehicle, (b) 10 ng/ml tumor necrosis factor alpha (TNF-α), (c) 1 μM 5Z-7-oxozeaenol (5Z-7), (d) a combination of 10 ng/ml TNF-α and 1 μM 5Z-7, (e) a combination of 10 ng/ml TNF-α, 1 μM 5Z-7, and 20 μM necrostatin-1 (Nec-1s), (f) a combination of 10 ng/ml TNF-α, 1 μM 5Z-7, and 1 mM primidone (primidone is referred to in the Figures as compound A), (g) a combination of 10 ng/ml TNF-α, 1 μM 5Z-7, and 25 μM zVAD, (h) a combination of 10 ng/ml TNF-α, 1 μM 5Z-7, and 20 μM Nec-1s, and (i) a combination of 10 ng/ml TNF-α, 1 μM 5Z-7, 25 μM zVAD, and 1 mM primidone. TNF-α is a pro-inflammatory cytokine which triggers cell survival (canonical pathway) or cell death, depending on the cellular context. 5Z-7-oxozeaenol (5Z-7) is an inhibitor of transforming growth factor activated kinase 1 (TAK1). TAK1 is an intermediate in the signaling pathway of the TNF-receptor type 1 (TNFR1), and it is known that TAK1 is essential for the prevention of TNF-induced cell death. Cells in which TAK1 is disrupted or otherwise blocked are hypersensitive to TNF-α-induced cell death due to diminished prosurvival pathways including NF-κB and reduced antioxidant enzymes which results in activation of caspases. The compound zVAD is a pan-caspase inhibitor."}, "L929 cells [3]": {"test_system": "L929 cells", "test": "TLR3-mediated cell death induced by poly (I:C) + zVAD", "format": "cell-based, murine", "details": "L929, 1 μg/ml poly (I:C) + 25 μM zVAD, 24 h; primidone 1 mM, Nec-1s 20 μM", "description": "Cell death was induced by activation of the Toll-like receptor 3 (TLR3). TLR3 is mainly expressed on immune cells, where it senses pathogen-associated molecular patterns and initiates innate immune response. The TLR3 agonist poly (I:C) was developed to mimic pathogens infection and boost immune system activation. In experimental models, poly (I:C) is known to induce regulated cell death in cells expressing TLR3. To examine whether primidone also blocks TLR3-mediated cell death, murine L929 cells were stimulated for 24 h at 37° C. with vehicle (a), 1 μg/ml of the TLR3 ligand poly (I:C) alone (b) or in combination with 25 μM zVAD (c). In addition, cells were stimulated with 1 μg/ml poly (I:C), 25 μM zVAD and 20 μM Nec-1s (d) and with 1 μg/ml poly (I:C), 25 μM zVAD and 1 mM primidone (e)."}, "L929 cells [4]": {"test_system": "L929 cells", "test": "Time profile of blocking TZ-induced necroptosis, FACS (7-AAD/Annexin V)", "format": "cell-based, murine", "details": "L929, 10 ng/ml TNF-α + 25 μM zVAD (TZ), 24 h; primidone 1 mM, Nec-1s 25 μM; one representative experiment of three", "description": "The time profile of primidone for blocking cell death was compared to the one of Nec-1s. For this purpose, murine L929 cells were stimulated at 37° C. for 24 h with 10 ng/ml TNF-α+25 μM zVAD (TZ) in the presence of 1 mM primidone and 25 μM Nec-1s, respectively, for the indicated durations. Nec-1s and primidone were added 30 min before, 60 min and 180 min after the induction of RIPK1-mediated necroptosis, respectively. Cell death was quantified by FACS analysis using 7-amino-actinomycin D and phosphatidylserine accessibility (Annexin V staining) as markers."}, "RIPK1": {"target": "T1, RIPK1 (Homo sapiens, UniProt Q13546)", "T1 sequence (Q13546 1-671)": "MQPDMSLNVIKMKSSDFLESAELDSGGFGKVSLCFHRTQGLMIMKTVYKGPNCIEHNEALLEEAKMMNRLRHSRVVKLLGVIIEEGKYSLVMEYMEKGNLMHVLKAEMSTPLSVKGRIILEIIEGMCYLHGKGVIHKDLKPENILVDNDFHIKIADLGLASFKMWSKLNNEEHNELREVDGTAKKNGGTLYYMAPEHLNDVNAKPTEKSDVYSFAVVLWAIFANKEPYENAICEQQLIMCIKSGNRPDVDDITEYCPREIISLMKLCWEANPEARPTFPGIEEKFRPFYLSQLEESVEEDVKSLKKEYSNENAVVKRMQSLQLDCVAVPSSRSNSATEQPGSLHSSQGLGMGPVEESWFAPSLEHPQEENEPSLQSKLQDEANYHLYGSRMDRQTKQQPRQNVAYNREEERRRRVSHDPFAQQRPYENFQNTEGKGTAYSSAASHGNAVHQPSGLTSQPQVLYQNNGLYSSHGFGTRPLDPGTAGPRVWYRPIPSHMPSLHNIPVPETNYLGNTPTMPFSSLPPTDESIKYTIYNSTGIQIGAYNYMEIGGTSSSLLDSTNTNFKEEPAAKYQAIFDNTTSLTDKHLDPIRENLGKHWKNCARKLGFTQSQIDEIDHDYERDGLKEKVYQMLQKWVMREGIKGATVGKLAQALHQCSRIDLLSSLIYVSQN", "test": "KINOMEscan profiling kinase assay", "procedure": "To clarify, a KINOMEscan™ profiling kinase assay was performed. […] Dissociation constants (Kd) for test compound-kinase interactions are calculated by measuring the amount of kinase captured on the solid support as a function of the test compound concentration."}, "Jurkat cells": {"test_system": "Jurkat cells", "test": "Anti-Fas antibody induced RIPK1-independent apoptosis", "format": "cell-based, human", "details": "5 ng/ml anti-Fas antibody, 5 h, zVAD 25 μM, primidone 1 mM", "description": "To this end, human T cells (Jurkat cells) were incubated for 5 h at 37° C. in the presence of (a) vehicle, (b) 5 ng/ml anti-Fas antibody, (c) 5 ng/ml anti-Fas antibody in combination with 25 μM of the pan-caspase inhibitor zVAD, and (d) 5 ng/ml anti-Fas antibody in combination with 1 mM primidone. The addition of the anti-Fas antibody induces apoptosis, a caspase-dependent form of regulated cell death that can be inhibited by the addition of the pan-caspase inhibitor zVAD."}},
  "note": "Where a SMILES comes first, the peptide text is derived from it. The star is where a group is joined. Cbz = O=C(OCc1ccccc1)*; CH2F = FC*",
  "data": [
    {"smiles": "CCC(C(N)=O)(C(N)=O)c1ccccc1", "note": "[PEMA, 2-Ethyl-2-phenylmalonamide]", "values": [
      {"measurement": "Block of TZ-induced RIPK1-dependent cell death (necroptosis)", "setting": "L929 cells [1]", "value": "can be blocked"}
    ]},
    {"smiles": "CN1C(=O)NC(Cc2c[nH]c3c(Cl)cccc23)C1=O", "note": "(stereo not shown) [Nec-1s]", "values": [
      {"measurement": "Block of RIPK1-dependent necroptosis", "setting": "L929 cells [2]; L929, 10 ng/ml TNF-α + 1 μM 5Z-7 + 25 μM zVAD, 24 h", "value": "prevents RIPK-1 dependent cell death"},
      {"measurement": "Block of RIPK1-dependent apoptosis (RDA)", "setting": "L929 cells [2]", "value": "can be blocked"},
      {"measurement": "Protection from RIPK1-mediated cell death induced by poly (I:C) and zVAD", "setting": "L929 cells [3]", "value": "effectively protect cells"},
      {"measurement": "Cells still alive, compound added 60 min after induction of cell death", "setting": "L929 cells [4]", "value": 85.0, "unit": "%"},
      {"measurement": "Cells still alive, compound added 3 hours after induction of cell death", "setting": "L929 cells [4]", "value": 16.3, "unit": "%"},
      {"measurement": "Binding to RIPK1 kinase domain (prevention of kinase binding to immobilized ligand)", "setting": "RIPK1", "value": "prevents the kinase from binding to an immobilized ligand"}
    ]},
    {"smiles": "CC(NC(=O)C(NC(=O)OCc1ccccc1)C(C)C)C(=O)NC(CC(=O)O)C(=O)CF", "note": "(stereo not drawn) [zVAD] (Cbz-Val-Ala-Asp-CH2F; configuration not given here)", "values": [
      {"measurement": "Block of RIPK1-dependent apoptosis (RDA)", "setting": "L929 cells [2]", "value": "cell death occurs"},
      {"measurement": "Inhibition of anti-Fas antibody induced cell death (caspase-dependent, RIPK1-independent)", "setting": "Jurkat cells", "value": "completely blocked"}
    ]},
    {"smiles": "CCC1(c2ccccc2)C(=O)NC(=O)NC1=O", "note": "[PB, 5-Ethyl-5-phenyl-1,3-diazinane-2,4,6-trione]", "values": [
      {"measurement": "Block of TZ-induced RIPK1-dependent cell death (necroptosis)", "setting": "L929 cells [1]", "value": "can be blocked"}
    ]}
  ]
}
